Read-outs that look alike come from different tables or passages of the source.

Data on one molecule can be found in patent US20120225889A1, “USE OF MACROCYCLIC LACTONE DERIVATIVES FOR THE TREATMENT OF INFLAMMATORY DISORDERS” (PIRAMAL LIFE SCIENCES LIMITED, priority 2010, published 2012).

In one test the test system is hPBMCs. Briefly: Lymphocyte proliferation assay (T-cell proliferation of normal hPBMCs). It is filed as cell-based. The settings on record: Homo sapiens. An excerpt: The assay method was designed as in references, The Journal of Immunology, 153, 1-9, (1994), and Clinical and Diagnostic Laboratory Immunology, 7, 687-692, (2000), the disclosure of which is incorporated by reference for the teaching of the assay.
hPBMCs were obtained from healthy donors by centrifugation of heparinized venous blood over Ficoll/Hypaque solution (Histopaque-1077, Sigma, USA). Isolated hPBMCs were suspended in RPMI 1640 culture medium supplemented with 10% FBS and seeded at a density of 50,000 cells/well in a 96-well plate (Nunc, USA). The cells were incubated at 37° C., 5% CO2 for a period of 24 h. These cells were used for the lymphocyte proliferation as well as cytokine release assay.
The plated cells were treated with different concentrations of the test compound (prepared as 20 mM stock in DMSO and diluted with DMSO to achieve the following final concentrations in the assay: 100, 10, 1, 0.1, 0.01, 0.001 and 0.0001 μM) and were incubated for 30 min. The cells were then stimulated with 5 ng/mL PMA (Sigma, USA, prepared as 100 μg/mL stock in RPMI and was diluted to 5 ng/mL) and 5 μg/mL PHA (Sigma, USA, prepared as a 1 mg/mL stock in RPMI). The plates were incubated at 37° C., 5% CO2 for 48 h. The cells were treated overnight with 0.1 μCi of tritiated thymidine per well (obtained from BARC, India; prepared as stock of 1 mCi/mL) and was diluted in KRPH buffer to 10 μCi/mL and […] and was added per well to obtain a final concentration 0.1 μCi/well) and at the end of 48 h, the anti-proliferative effect of the compound was measured using the following formula: […]
Controls consisted of hPBMCs with PHA and PMA (Stimulated), hPBMCs with RPMI (Un-stimulated), hPBMCs with FK506 (positive control, Sigma, USA, prepared as 20 mM stock in DMSO and diluted with DMSO to achieve the following final concentrations in the assay: 100, 10, 1, 0.1, 0.01, 0.001 and 0.0001 μM).

For the next test, the system named is GBP-1. Briefly: Gene expression profile using RTQ-PCR: GBP-1. Type of test: cell-based, human. Conditions: 3 μM, 12 h. The procedure: The effect of the compound of example 7 was measured in stimulated untreated cells from the monocytic cell line (THP-1), human monocytes and synovial cells from rheumatoid arthritis patient. The effect of the compound in the THP-1 cell line was measured in terms of gene expression and was expressed as fold changes as compared to the cell stimulated control with no drug treatment.
THP-1 cells, human monocytes and synovial cells were treated with compound of example 7 or vehicle (0.5% DMSO). Total RNA isolation using a commercial RNA extraction kit (Qiagen Corporation, Germany) The first-strand cDNA was synthesized from total RNA using first strand cDNA synthesis kit from Invitrogen Corporation (California, USA). This was followed by real time quantitative polymerase chain reaction (RTQ PCR) using gene specific primers and standard thermal program of initial denaturation at 95° C. for 5 min and cycles of 95° C. for 10 seconds, followed by 60° C. for 30 seconds (Realplex PCR machine from Eppendorf, Germany). Quantitative measurement of products made during PCR cycles was normalized against a housekeeping gene (Actin) and was used to measure the gene expression as fold changes as compared to respective control.

In test [1] the test system is DBA/1J mice with collagen induced arthritis. Briefly: Arthritic mice: administration by osmotic pumps. It is filed as in vivo. Conditions: sub-cutaneous osmotic pumps, 240 μg/mouse/24 h, 26 days. The procedure: The experiment was performed in DBA/1J mice, in which arthritis was developed by injection of collagen emulsion, as described in Example 26.
The animals were divided into two groups, viz. a control group and a test compound treated group, having 6 animals each. The clear solution of test compound was prepared in 100% dimethyl sulfoxide (DMSO) and then DMSO concentration was brought down to 25% by addition of appropriate quantities of ethanol and polyethylene glycol 400 (PEG 400), so that the proportion of each solvent in a final solution v/v was 25:15:60::DMSO:EtOH:PEG-400. By this method absolutely clear solution of the compound having a final concentration of 40 mg/mL was obtained. This solution was filtered through 0.2μ filter and was filled in osmotic pumps (Alzet micro-osmotic pump model 1002). The delivery rate of this model of pump is 0.25 μL per hour and it remains functional for 14 days.
These pumps were then implanted sub-cutaneously in the animals of the test compound treated group (240 μg/mouse/24 h). The pumps filled with blank solvent were implanted sub-cutaneously in the animals of control group. Thereafter, their paws were scored for arthritic indices, in addition to measurement of thickness, daily once. After 14 days, the pumps were replaced with freshly filled pumps and the experiment was continued for next 12 days (total 26 days).

As to `C/C=C/C(O)C(C)/C=C/C(=N\O)C(C)C(O)C(C)C1OC(=O)/C(OC)=C/C(C)=C/C(C)C(O)C(CC)C(O)C(C)C/C(C)=C/C=C/C1OC` (centres unmarked) [Compound of example 7, (3Z,5E,13E,15E)-18-((5Z,6E,10E)-3,9-Dihydroxy-5-(hydroxymino)-4,8-dimethyldodeca-6,10-dien-2-yl)-9-ethyl-8,10-dihydroxy-3,17-dimethoxy-5,7,11,13-tetramethyl oxacyclooctadeca-3,5,13,15-tetraen-2-one], the IC50 stood at 0.003 µM with hPBMCs (read-out: Stimulated hPBMC's IC50 (inhibition of cell proliferation)) and 5 µM with hPBMCs (read-out: Unstimulated hPBMC's IC50 (inhibition of cell proliferation)). Besides, the GBP-1 gene expression in the test with GBP-1 (Synovial cells, N = 1) was −1.5 log fold change; in the test with GBP-1 (THP-1 cells, ± SE, N = 3), −1.6 + 1.0 log fold change. Also, the “severity of arthritis (arthritic scores and paw thickness)” value in test [1] is listed as “reduces severity of arthritis”.
